Measurements published in PubChem BioAssay (NCI).
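1) Cells in 96-well plates. 2) Compound, 48 h, 5 concentrations. 3) Linear interpolation between surrounding doses. 4) Unreached endpoint = highest concentration. TGI is the concentration that stops growth completely.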

How the values were obtained:
Test in all cases: NCI tumour cell line growth inhibition, 48 h
[1] = system: DMS 273 small cell lung
[2] = system: NCI/ADR-RES ovarian
[3] = system: SNB-78 CNS
[4] = system: IGROV1 ovarian
[5] = system: DLD-1 colon
[6] = system: KM20L2 colon
[7] = system: OVCAR-5 ovarian
[8] = system: M19-MEL melanoma
[9] = system: PC-3 prostate
[10] = system: BT-549 breast
[11] = system: SR leukemia
[12] = system: TK-10 renal
[13] = system: ACHN renal
[14] = system: MDA-MB-231 breast
[15] = system: NCI-H522 lung
[16] = system: HS 578T breast
[17] = system: MDA-MB-435
[18] = system: T-47D breast
[19] = system: XF 498 CNS
[20] = system: LXFL 529 NSCLC

Cc1ccc(C2COc3cc(O)c(O)cc3C2)cc1 (stereo unspecified)
TGI [1]: 78.1 µM | TGI [2]: 40.8 µM | TGI [3]: 221 µM | TGI [4]: 38.5 µM | TGI [5]: 105 µM | TGI [6]: 164 µM | TGI [7]: 244 µM | TGI [8]: 66.1 µM

CO/N=C\c1cc(O)c(O)c(/C=N/OC)c1
TGI [9]: > 100 µM | TGI [10]: > 100 µM | TGI [11]: > 100 µM | TGI [12]: > 100 µM | TGI [2]: > 100 µM | TGI [4]: > 100 µM | TGI [13]: > 100 µM | TGI [14]: > 100 µM | TGI [15]: > 100 µM | TGI [16]: 71.1 µM | TGI [7]: > 100 µM | TGI [17]: > 100 µM | TGI [18]: > 100 µM

O=C(c1ccccc1)c1nc2ccc(Cl)cc2c2c1CCCO2
TGI [11]: > 100 µM | TGI [1]: > 100 µM | TGI [12]: > 100 µM | TGI [3]: > 100 µM | TGI [19]: > 100 µM | TGI [4]: > 100 µM | TGI [20]: > 100 µM | TGI [13]: > 100 µM | TGI [15]: > 100 µM | TGI [6]: > 100 µM | TGI [7]: > 100 µM | TGI [8]: > 100 µM

Cc1nc2[nH]ncn2c(=O)c1CCCl
TGI [9]: > 10 µM | TGI [11]: > 10 µM | TGI [12]: > 10 µM | TGI [2]: > 10 µM | TGI [4]: > 10 µM | TGI [13]: > 10 µM | TGI [14]: > 10 µM | TGI [15]: > 10 µM | TGI [16]: > 10 µM | TGI [7]: > 10 µM | TGI [17]: > 10 µM | TGI [18]: > 10 µM

OCc1cc2ccncc2c2c1[nH]c1ccccc12
TGI [11]: 20 µM | TGI [1]: 16.5 µM | TGI [12]: 67.7 µM | TGI [3]: 63.1 µM | TGI [19]: 19.7 µM | TGI [4]: 17.1 µM | TGI [20]: 22 µM | TGI [13]: 15.9 µM | TGI [5]: > 100 µM | TGI [7]: 26.7 µM

COc1cc(C(=O)CC2OC(=O)C(Cl)=C2Cl)ccc1Cl (stereo unspecified)
TGI [11]: > 100 µM | TGI [1]: > 100 µM | TGI [12]: > 100 µM | TGI [3]: > 100 µM | TGI [19]: > 100 µM | TGI [4]: > 100 µM | TGI [20]: > 100 µM | TGI [13]: > 100 µM | TGI [5]: > 100 µM | TGI [15]: > 100 µM | TGI [6]: > 100 µM | TGI [7]: > 100 µM | TGI [8]: > 100 µM

O=C(c1ccccc1)C1C(c2ccccc2)N1S(=O)(=O)c1ccccc1 (stereo unspecified)
TGI [9]: > 100 µM | TGI [10]: > 100 µM | TGI [12]: > 100 µM | TGI [2]: > 100 µM | TGI [4]: > 100 µM | TGI [14]: > 100 µM | TGI [15]: > 100 µM | TGI [16]: > 100 µM | TGI [7]: > 100 µM | TGI [17]: > 100 µM | TGI [18]: > 100 µM

C[C@]12CC[C@@H]3c4ccc(O)cc4CC[C@H]3[C@@H]1CC[C@@H]2OC(=O)CCc1ccccc1
TGI [9]: 34.4 µM | TGI [10]: 34.2 µM | TGI [12]: 33.9 µM | TGI [2]: 33.8 µM | TGI [4]: 43.9 µM | TGI [13]: 35.5 µM | TGI [14]: 33.4 µM | TGI [15]: 32.9 µM | TGI [16]: 17.9 µM | TGI [7]: > 100 µM | TGI [17]: 45.1 µM | TGI [18]: 37 µM
